Source: patent publication US10660910B2, “Use of sedoheptulose for prevention or treatment of inflammation” (C7 SUGAR GMBH, priority 2013, dated 2020)

System: WT hepatocytes
Assay: Glucose-induced ECAR in hepatocytes
Format: cell-based, mouse
Details: WT hepatocytes in GFS vs GF media, 1 hr carbohydrate starvation, then glucose 1 g/L, FIG. 4E
Procedure: Hepatocytes were isolated from male wild-type and CARKL overexpressing mice after the mice were sacrificed by hepatic in situ collagenase perfusion. After perfusion, the liver was quickly removed, minced, and filtered through a cell strainer (Fisher Scientific, Inc) into a 50 ml sterile tube. Hepatocytes in the resulting filtrate were purified from the nonparenchymal cells by centrifugation steps. The isolated hepatocytes were seeded into plates at a concentration of 0.25×10^6/ml in respective DMEM-media containing 10% FBS and indicated carbohydrate mixes at 3 g/L (glucose and fructose (GF), or glucose, fructose and sedoheptulose (GFS)) at least two days before experiments were performed.
The XF-Analyzer (Seahorse Bio.) was used to measure changes in cellular metabolism induced by different carbohydrates. Extracellular acidification rates (ECAR, mpH/min) and oxygen consumption rates (OCR, pmoles/min) were recorded in primary human adipocytes and primary murine hepatocytes according to the manufacture instructions. Briefly, cells were seeded in seahorse cell plates at a density of 10^4 cells per well for adipocytes and 0.5×10^5 cells per well for hepatocytes. […] Changes induced by the different carbohydrate sources were expressed as relative change in % to illustrate the effect of each carbon source.

O=C(CO)[C@@H](O)[C@H](O)[C@H](O)[C@H](O)CO [sedoheptulose, Sedoheptulose]
glucose-induced ECAR: reduced
